From US5182298A, “Cholesterol lowering agents” (Merck & Co., Inc., priority 1991, dated 1993)
Values after ≈ are worked out from the molar mass of the structure shown. Where two headings read alike, the source gives them in different places.

Legend:
[1] = system: Aspergillus niger; assay: FISP disc diffusion assay, zone of inhibition; assay type: cell-based; settings: 24 h, CH2Cl2, 250 μg/ml, agar diffusion, two lines for this species, read-out: Zone: diameter of the zone of inhibition of growth
Source text: (§1) The FISP assay employs disc diffusion susceptibility testing methods to generate a spectrum of activity against a panel of representative yeasts, filamentous fungi and bacteria.
(§2) The filamentous fungi used in the assay were Penicillium sp. Aspergillus niger, Trichoderma sp., Phoma sp., Trichoderma lignorum, Fusarium oxysporum, Ustilago maydis, Ceratocystis ulmi, Alternaria soloni, Verticillium serrae, Botrytis allii, Scopulariopsis communis, Cephalosporium sp., Cercospora beticola, Rhizomucor miehei, Aspergillus flavus and Aspergillus fumigatus.
(§3) For carrying out the assay, seeded assay plates are prepared in the following manner according to the type of assay strain.
(§4) Inocula for filamentous fungi are prepared by scraping the surface of stock plates maintained on potato dextrose agar with a moistened sterile dacron swab. The spores and mycelia are then suspended in 10 milliliters of sterile potato dextrose broth and adjusted to 65 percent transmission at 660 nm.
(§5) Assay plates for the yeasts and filamentous fungi are prepared by diluting the inoculum into appropriate molten agar medium, cooled to 45° C. to obtain a final concentration of 4 percent.
(§6) The seeded agar media thus prepared are dispensed into petri dishes for assays (11 milliliters per dish). […]
(§7) Following incubation, the inhibition zones are measured and recorded. […]

[2] = system: Cephalosporium sp.; assay: FISP disc diffusion assay, zone of inhibition; assay type: cell-based; parameters: key: clear zone throughout, sharp edges; F: clear zone, fuzzy edges; S: slightly hazy zone (some growth observed throughout zone); H: hazy zone (considerable growth observed throughout zone); V: very hazy zone (zone of inhibition is barely discernable); R: zone displays a ring of resistant growth; settings: CH2Cl2, 250 μg/ml
Source text: as §1, §2, §3, §4, §5
(§8) The seeded agar media thus prepared are dispensed into petri dishes for assays (11 milliliters per dish).
(§9) The samples to be tested for production of antifungal agent are applied to 6.2 mm. filter paper discs (25 microliter/disc) and air dried at 24° C. When the sample to be tested is crude broth, it may be centrifuged prior to application. The discs bearing the material to be tested are then applied employing sterile conditions to the seeded assay plates. The assay plates are then incubated at either 28° C. or 37° C. for 24 hours. In one of the assays for Bacillus subtilis, the sample is applied to a disc previously impregnated with 4M potassium chloride at 25 μl/disc and then air dried.
(§10) Following incubation, the inhibition zones are measured and recorded. The measurements are made from the extreme edge where growth differs from the background zone. […]

[3] = system: Ceratocystis ulmi; assay: FISP disc diffusion assay, zone of inhibition; assay type: cell-based; parameters: key: clear zone throughout, sharp edges; F: clear zone, fuzzy edges; S: slightly hazy zone (some growth observed throughout zone); H: hazy zone (considerable growth observed throughout zone); V: very hazy zone (zone of inhibition is barely discernable); R: zone displays a ring of resistant growth; settings: CH2Cl2, 250 μg/ml
Source text: as §1, §2, §3, §4, §5, §8, §9, §10

[4] = system: Phoma sp.; assay: FISP disc diffusion assay, zone of inhibition; assay type: cell-based; parameters: key: clear zone throughout, sharp edges; F: clear zone, fuzzy edges; S: slightly hazy zone (some growth observed throughout zone); H: hazy zone (considerable growth observed throughout zone); V: very hazy zone (zone of inhibition is barely discernable); R: zone displays a ring of resistant growth; settings: CH2Cl2, 250 μg/ml
Source text: as §1, §2, §3, §4, §5, §8, §9, §10

[5] = system: Bacillus subtilis; assay: FISP disc diffusion assay, zone of inhibition; assay type: cell-based; settings: CH2Cl2, 250 μg/ml, agar diffusion
Protocol: as §1
The bacteria employed in the assay are Streptomyces sp., Acholeplasma laidlawii and Bacillus subtilis.
as §3
Seeded agar for Bacillus subtilis are prepared from a commercially available spore suspension which is diluted directly into molten agar (45° C.) to obtain a final concentration of 0.1 percent.
as §8, §9, §7

[6] = system: Candida albicans; assay: FISP disc diffusion assay, zone of inhibition; assay type: cell-based; settings: 24 h, CH2Cl2, 250 μg/ml, agar diffusion, five lines without medium suffix, read-out: Zone: diameter of the zone of inhibition of growth
Source text: as §1
(§11) The yeasts employed in the assay are Saccharomyces cerevisiae, Candida albicans, Candida tropicalis, Candida rugosa, Brettanomyces bruxellensis, Torulospora hansenii, Candida guilliermondi, Candida pseudotropicalis, Torulopsis glabrata, Cryptococcus albidus, Cryptococcus laurentii and Kluyveromyces fragilis.
as §3
(§12) Inocula for yeasts and bacterial strains are prepared from overnight broth cultures then diluted into potato dextrose agar to a final concentration of either 40 percent or 70 percent transmission at 660 nm.
(§13) For three strains of Candida albicans and one strain of Saccharomyces cerevisiae, sterile saline is employed in place of potato dextrose broth.
as §5, §6, §7

[7] = system: Saccharomyces cerevisiae; assay: FISP disc diffusion assay, zone of inhibition; assay type: cell-based; settings: 24 h, CH2Cl2, 250 μg/ml, agar diffusion, two lines without medium suffix, read-out: Zone: diameter of the zone of inhibition of growth
Source text: as §1, §11, §3, §12, §13, §5, §6, §7

[8] = system: Candida guilliermondii; assay: FISP disc diffusion assay, zone of inhibition; assay type: cell-based; settings: Meyerozyma guilliermondii, 24 h; CH2Cl2, 250 μg/ml; agar diffusion; read-out: Zone: diameter of the zone of inhibition of growth
Source text: as §1, §11, §3, §12, §5, §8
(§14) The samples to be tested for production of antifungal agent are applied to 6.2 mm. filter paper discs (25 microliter/disc) and air dried at 24° C. […]
as §7

[9] = system: Torulopsis glabrata; assay: FISP disc diffusion assay, zone of inhibition; assay type: cell-based; settings: Nakaseomyces glabratus, 24 h; CH2Cl2, 250 μg/ml; agar diffusion; read-out: Zone: diameter of the zone of inhibition of growth
Source text: as §1, §11, §3, §12, §5, §8, §14, §7

[10] = system: Torulospora hansenii; assay: FISP disc diffusion assay, zone of inhibition; assay type: cell-based; parameters: key: clear zone throughout, sharp edges; F: clear zone, fuzzy edges; S: slightly hazy zone (some growth observed throughout zone); H: hazy zone (considerable growth observed throughout zone); V: very hazy zone (zone of inhibition is barely discernable); R: zone displays a ring of resistant growth; settings: CH2Cl2, 250 μg/ml
Source text: as §1, §11, §3, §12, §5, §8, §14, §7

[11] = system: Candida albicans; assay: Microdilution Broth Assay (MIC/MFC); assay type: cell-based
Protocol: (§15) The broad spectrum antifungal activity of the present compounds was further determined by broth dilution methods. The compounds are particularly active towards filamentous fungi and yeasts including Candida albicans and Crypt. neoformans. The sensitivity of filamentous fungi and yeasts was determined using inhibitor dilution assays in microtiter format. A standardized spore suspension for testing the filamentous fungi was prepared by inoculating sterile distilled water with spores such that 1.5-7.5×10^3 colony forming units were added per well. The microtiter wells were filled with 75 μl of yeast nitrogen base containing 1% Dextrose medium (YNB/D) containing compound. Fifty μl of inoculated YNB/D medium was then added to the wells.
(§16) The sensitivity of yeasts was determined by inoculating sterile distilled water with aliquots of a 4-hour yeast culture grown in Yeast Morphology (YM) media at 35° C. and diluting in YNB/D to yield a final concentration of 1.5-7.5×10^3 colony forming units/well. Seventy-five μl of inoculated media was added per well. To test the sensitivity of yeast, compound was solubilized in 10 percent aqueous DMSO at 2.56 mg/ml. The compound was diluted serially in YNB/D from 128 to 0.06 μg/ml. The wells were filled with 75 μl of drug containing media. […] Representative of the antifungal activity are the minimum inhibitory concentration and minimum fungicidal concentration data shown below in Table II: […]

[12] = system: Candida guilliermondii; assay: Microdilution Broth Assay (MIC/MFC); assay type: cell-based; settings: Meyerozyma guilliermondii, strain MY 1019
Protocol: as §15, §16

[13] = system: Candida parapsilosis; assay: Microdilution Broth Assay (MIC/MFC); assay type: cell-based; settings: Lodderomyces parapsilosis; strain MY 1010; read-out: MFC (minimum fungicidal concentration)
Protocol: as §15, §16

[14] = system: Candida tropicalis; assay: Microdilution Broth Assay (MIC/MFC); assay type: cell-based
Protocol: as §15, §16

[15] = system: Cryptococcus neoformans; assay: Microdilution Broth Assay (MIC/MFC); assay type: cell-based; settings: for MIC: 35° C., read-out: MIC (minimum inhibitory concentration)
Protocol: as §15, §16

[16] = system: Saccharomyces cerevisiae; assay: Microdilution Broth Assay (MIC/MFC); assay type: cell-based
Protocol: as §15, §16

[17] = light stability on isolation and handling; assay type: physicochemical

Q: Which zone of inhibition at 250 µg/mL [1] does the source give for `CC(/C=C/C=C(\C)C(O)C(C)C(=O)O[C@H]1C[C@H](C)C=C2C=C[C@@]3(C)O[C@@H](O)CC(=O)[C@]3(C)[C@H]21)=C\C=C\C(=O)O` (some centres unmarked) [Compound A] here?
A: Its zone of inhibition at 250 µg/mL is 0 mm.

Q: And the “Zone quality (qualifier)” value [2]?
A: Its value is “F”.

Q: And the “Zone quality (qualifier)” value [3]?
A: The value was “V”.

Q: What about the “Zone quality (qualifier)” value [4] of the same compound?
A: The value was “S”.

Q: And the zone of inhibition at 250 µg/mL ([5]; Bacillus subtilis, 24 h, KCl (disc impregnated with 4M potassium chloride), read-out: Zone: diameter of the zone of inhibition of growth)?
A: Its zone of inhibition at 250 µg/mL is 0 mm.

Q: What about the “Zone: diameter of the zone of inhibition of growth” value [5] of the same compound?
A: The value was 0 mm.

Q: And the zone of inhibition at 250 µg/mL [6]?
A: Its zone of inhibition at 250 µg/mL is 0 mm.

Q: And the zone of inhibition at 250 µg/mL [7]?
A: The zone of inhibition at 250 µg/mL was 0 mm.

Q: And the zone of inhibition at 250 µg/mL [8]?
A: The zone of inhibition at 250 µg/mL was 0 mm.

Q: And the zone of inhibition at 250 µg/mL [9]?
A: The zone of inhibition at 250 µg/mL was 0 mm.

Q: What about the “Zone quality (qualifier)” value [10] of the same compound?
A: The value was “H”.

Q: What about the MIC ([11]; Candida albicans, strain MY 1055, 24 to 48 hours, 35° C., read-out: MIC (minimum inhibitory concentration)) of the same compound?
A: Its MIC is ≤ 0.06 mg/L.

Q: And the MFC ([11]; Candida albicans, strain MY 1055, read-out: MFC (minimum fungicidal concentration))?
A: The MFC was ≤ 0.06 mg/L.

Q: And the “MFC (minimum fungicidal concentration)” value ([11]; strain MY 1028)?
A: The value was ≤ 0.06 mg/L.

Q: And the “MIC (minimum inhibitory concentration)” value ([11]; strain MY 1028, 24 to 48 hours, 35° C.)?
A: Its value is ≤ 0.06 mg/L.

Q: What about the MIC ([12]; 24 to 48 hours, 35° C., read-out: MIC (minimum inhibitory concentration)) of the same compound?
A: Its MIC is > 128 mg/L.

Q: And the MFC ([12]; read-out: MFC (minimum fungicidal concentration))?
A: Its MFC is > 128 mg/L.

Q: And the MFC [13]?
A: The MFC was 0.25 mg/L (≈ 0.462 µM).

Q: What about the MIC ([14]; strain MY 1012, 24 to 48 hours, 35° C., read-out: MIC (minimum inhibitory concentration)) of the same compound?
A: The MIC was ≤ 0.06 mg/L.

Q: What about the MFC ([14]; strain MY 1012, read-out: MFC (minimum fungicidal concentration)) of the same compound?
A: Its MFC is 0.5 mg/L (≈ 0.925 µM).

Q: And the MFC ([15]; strain MY 1051, read-out: MFC (minimum fungicidal concentration))?
A: Its MFC is 32 mg/L (≈ 59.2 µM).

Q: What about the MIC ([15]; strain MY 1146, 24 to 48 hours) of the same compound?
A: The MIC was 128 mg/L (≈ 237 µM).

Q: What about the MFC ([15]; strain MY 1146, read-out: MFC (minimum fungicidal concentration)) of the same compound?
A: Its MFC is 64 mg/L (≈ 118 µM).

Q: What about the MIC ([15]; strain MY 2061, 24 to 48 hours) of the same compound?
A: The MIC was 128 mg/L (≈ 237 µM).

Q: And the MFC ([15]; strain MY 2061, read-out: MFC (minimum fungicidal concentration))?
A: Its MFC is 64 mg/L (≈ 118 µM).

Q: And the MIC ([16]; strain MY 1976, 24 to 48 hours, 35° C., read-out: MIC (minimum inhibitory concentration))?
A: The MIC was > 128 mg/L.

Q: What about the MFC ([16]; strain MY 1976, read-out: MFC (minimum fungicidal concentration)) of the same compound?
A: The MFC was > 128 mg/L.

Q: And the light sensitivity [17]?
A: Its light sensitivity is “light sensitive”.

Q: And the stability ([17]; isolated and worked with in the absence of light)?
A: The stability was “stable”.
